Results from patent publication US4952704A, “Bis-(pyrrolidonyl alkylene) biguanides” (GAF Chemicals Corporation, priority 1989, dated 1990).
≈ marks a conversion by molar mass, not a printed value. Like-named read-outs stand apart in the source and are kept apart here.

Tests used:
Strept. py. = assay: Minimum inhibitory concentration, Strept. py. (Gram positive); type: cell-based
Method: (§1) The minimum inhibitory concentrations (MIC) against different Gram positive and Gram negative microorganisms, and fungi, were determined and the results are shown in Table 2 below.

Fungi = assay: Minimum inhibitory concentration, Fungi; type: cell-based
Method: as §1

Staph. aur. = assay: Minimum inhibitory concentration, Staph. aur. (Gram positive); type: cell-based
Method: as §1

E. Coli = assay: Minimum inhibitory concentration, E. Coli (Gram negative); type: cell-based; settings: Escherichia coli
Method: as §1

Ps. aer. = assay: Minimum inhibitory concentration, Ps. aer. (Gram negative); type: cell-based
Method: as §1

[1] = Solubility in Water (Table 1); type: physicochemical
Description: The results in Table I below illustrates the water solubility of the free base and hydrochloride salts of the invention versus chlorhexidine.

bacterial spores = settings: room temperature; cited from earlier work
[2] = cited from earlier work
bacteria = settings: cited from earlier work
[3] = cited from earlier work; remark: listed apart in the source
[4] = HCl salt, pH 5.5, read-out: Solubility in water, HCl Salt (pH 5.5)
[5] = free base, pH 8.5, read-out: Solubility in water, Free Base (pH 8.5)

Compound | MIC (Strept. py.) [µg/mL] | MIC (Fungi) [µg/mL] | MIC (Staph. aur.) [µg/mL] | MIC (E. Coli) [µg/mL] | MIC (Ps. aer.) [µg/mL] | solubility [1, 4] [mg/mL] | solubility [1, 5] [mg/mL] | activity against bacterial spores (bacterial spores) | compatibility in formulations containing surface active agents [2] | antibacterial activity at low pH (bacteria; pH below 5) | antibacterial activity, pH dependence (bacteria; pH range 5-8) | water solubility for the free base [3]
N=C(NCCCCCCNC(=N)NC(=N)Nc1ccc(Cl)cc1)NC(=N)Nc1ccc(Cl)cc1 [Chlorhexidine gluconate, reference compound] | 5 | > 200 | 2.5 | 5 | 50 | – | – | – | – | – | – | –
N=C(NCCOCCOCCNC(=N)NC(=N)NCCN1CCCC1=O)NC(=N)NCCN1CCCC1=O [Ex. 6, 1,2-Bis[1-(2-pyrrolidonylethyl)-5-(2-Ethoxybiguanido)]ethane:2HCl] | ≤ 50 | ≤ 50 | > 500 | 100 | ≤ 100 | 500 | 500 | – | – | – | – | –
N=C(NCCCCCCNC(=N)NC(=N)NCCN1CCCC1=O)NC(=N)NCCN1CCCC1=O [Ex. 4, 1,6-Bis[1-(2-Pyrrolidonylethyl)biguanido]hexane:2HCl] | ≤ 50 | 100 | ≤ 100 | 250 | 250 | 500 | 50 | – | – | – | – | –
[H]/N=C(\N/C(=N/[H])NCCCCCCNC(=N)NC(=N)Nc1ccc(Cl)cc1)Nc1ccc(Cl)cc1 [Chlorhexidine, 1,6-bis(4-chlorophenylbiguanido)-hexane] | – | – | – | – | – | 18 | 0.08 (≈ 158 µM) | inactivity against bacterial spores | incompatability | deteriorates | pH dependent | low water solubility
N=C(NCCCCCCCCCCCCNC(=N)NC(=N)NCCN1CCCC1=O)NC(=N)NCCN1CCCC1=O [Ex. 5, 1,12-Bis[1-(2-Pyrrolidonylethyl)biguanido]dodecane:2HCl] | ≤ 50 | ≤ 50 | ≤ 50 | 250 | > 500 | 500 | 20 | – | – | – | – | –
